According to US11974973B2, “Ketone supplements-evoked effect on absence epilepsy by co-administration of uridine” (UNIVERSITY OF SOUTH FLORIDA, priority 2022, dated 2024):
“Also recorded” adds a separate entry of the source.

Key:
WAG/Rij rats [1] = test: EEG recording of spike-wave discharges (SWD number, averaged and total SWD time) in WAG/Rij rat model of human absence epilepsy; format: in vivo
Description: Free access to water and food (Table 1), as well as standard laboratory conditions were provided.
Rats were implanted with stainless steel screw electrodes for EEG recording under isoflurane-air mixture (2.0-2.5%) anesthesia. The screw electrodes were placed epidurally over the cortex of the frontal (AP: 2.0 mm; L: 2.1 mm) and parietal (AP: −6.5 mm; L: 2.1 mm) areas. Reference electrodes and ground electrodes were also stainless-steel screw electrodes (implanted above the cerebellar cortex). All electrodes were soldered to a 10-pin socket and permanently attached to the skull with dentacrylate cement (Ivoclar Vivadent AG, Schaan, Liechtenstein). Lidocaine ointment (5%; EGIS, Budapest, Hungary) was used as post-operative pain relief.
The EEG was recorded in a Faraday cage. […] The sampling rate was 500 Hz whereas the bandwidth of the EEG recording was 0.3 Hz to 150 Hz. Both the treatments and handling may induce stress and behavioral changes, which may modify the SWD number. […] For this reason, data of the first 30 min after the treatments was excluded from the analysis. Thus, the number and time of SWDs were considered between 30 and 270 min of post-treatment time (from 1.00 PM to 5.00 PM). SWDs (a train of asymmetric 7-11 Hz sharp spikes and slow waves) were cut off from the raw data files and were analyzed by FFT analysis. The recording periods were split into 60 min sections and evaluated separately. […]
Animals were assigned into eight groups (FIG. 1). To help the rats to adapt to the experimental procedures (e.g., EEG recording), after the two-week recovery period animals were handled daily and were connected to the EEG/CED system for 4 days (once a day, for 4.5 h) (group 1-8). Moreover, on same days, rats of group 7 and group 8 were also gavaged by water (2.5 g/kg/day) for the adaptation of rats to gavage method. To establish averaged control SWD numbers (group 1-8) and control average time and total time of SWDs (group 5, group 6, and group 8), all rats received 1 mL saline i.p. on 3 consecutive days (three control days, first treatment). Thirty min later, animals were injected again with 1 mL saline i.p. (second treatment, group 1-6) or gavaged by 2.5 g/kg water (second treatment, group 7 and 8). […] On the fourth day of experiments, the rats in group 1 and group 2 were i.p. injected with 1 mL 10% DMSO solution (first treatment) and, 30 min later, with 250 mg/kg, and 1000 mg/kg uridine in 1 mL saline (second treatment), respectively. On the fourth day, animals in group 3 first received 0.2 mg/kg DPCPX alone in 1 mL 10% DMSO solution (first treatment) followed by i.p. 1 mL saline (30 min later; second treatment) (FIG. 1). […] On that day, the animals in group 5 were injected with combined i.p. injection of DPCPX and uridine: 0.2 mg/kg DPCPX in 1 mL 10% DMSO solution (first treatment) and, 30 min later, 1000 mg/kg uridine in 1 mL saline (second treatment) were administered. […] Animals of group 7 received i.p. 1 mL saline (first treatment), and 30 min later, gavage of 2.5 g/kg KSMCT was carried out (second treatment) on the fourth day. […] On the fifth (PTC) day, i.p. administration of 1 mL saline (first treatment) was followed by gavage of 2.5 g/kg water (30 min later; second treatment; group 7 and 8) (FIG. 1).
Data were presented as means±standard error of the mean (S.E.M.). The pretreatment control values of SWD numbers (group 1-8) and SWD time (group 5, group 6, and group 8) were the grand average of SWD numbers and time recorded on the three control days.

WAG/Rij rats [2] = conditions: effective doses; previous studies [7,8,25,41,45]; cited from earlier work
[3] = DPCPX i.p. 0.2 mg/kg or SCH 58261 i.p. 0.5 mg/kg alone, PTC day (groups 3 and 4, FIG. 2C,D)

Row | Compound | SWD number compared to control (WAG/Rij rats [1]; DPCPX i.p. 0.2 mg/kg alone, treatment day, 30-270 min (group 3, FIG. 2C), 0.2 mg/kg) | SWD number compared to control (WAG/Rij rats [1]; [3]) | sleep-waking ratios and averaged time of SWDs (WAG/Rij rats [2]) | SWD number compared to control (WAG/Rij rats [1]; SCH 58261 i.p. 0.5 mg/kg alone, treatment day, four hours recording (group 4, FIG. 2D)) | SWD number compared to control (WAG/Rij rats [1]; uridine i.p. 250 mg/kg alone, post-treatment control (PTC) day (group 1, FIG. 2A)) | SWD number compared to control (WAG/Rij rats [1]; uridine i.p. 250 mg/kg alone, treatment day, second to fourth hours of recording (group 1, FIG. 2A), 250 mg/kg) | SWD number compared to control (WAG/Rij rats [1]; uridine i.p. 1000 mg/kg alone, PTC day, 30-270 min (group 2, FIG. 2B)) | SWD number compared to control (WAG/Rij rats [1]; uridine i.p. 1000 mg/kg alone, treatment day, 90-270 min (group 2, FIG. 2B), 1000 mg/kg)
1 | CCCn1c(=O)c2[nH]c(C3CCCC3)nc2n(CCC)c1=O [DPCPX, 1,3-dipropyl-8-cyclopentylxanthine] | did not evoke proepileptic effect; also recorded: did not generate changes in SWD number | did not change SWD number on PTC days | did not change sleep-waking ratios and averaged time of SWDs |  |  |  |  | 
2 | Nc1nc2c(cnn2CCc2ccccc2)c2nc(-c3ccco3)nn12 [SCH 58261, 7-(2-phenylethyl)-5-amino-2-(2-furyl)-pyrazolo-[4,3-e]-1,2,4-triazolo[1,5-c]pyrimidine] |  | did not change SWD number on PTC days | did not change sleep-waking ratios and averaged time of SWDs | did not generate anti-epileptic effect |  |  |  | 
3 | O=c1ccn([C@@H]2O[C@H](CO)[C@@H](O)[C@H]2O)c(=O)[nH]1 [uridine] |  |  | did not change sleep-waking ratios and averaged time of SWDs |  | significant change in SWD number was not observed | only a trend of non-significant decrease in SWD number | significantly decreased SWD number | significantly decreased the SWD number
